Data: patent publication US8017612B2, “Piperazine compound and use thereof as a HCV polymerase inhibitor” (priority 2006, dated 2011)

How the values were obtained:
[1] = target: T1, HCV polymerase (NS5B) type 1b (Hepatitis C virus genotype 1b, UniProt P26663); assay: Assay of enzyme (HCV polymerase) inhibitory activity, type 1b enzyme; assay type: biochemical, HCV BK strain (type 1b); details: HCV polymerase inhibitory activity IC50, 1b, type 1b enzyme
T1 construct: a region encoding NS5B (J Virol 1991 March, 65(3), 1105-13, 544 amino acids after deletion of 47 amino acids on the C-terminal); 6xHis (C); made in house; host or cells: Escherichia coli
In short: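 IC50 derived from [3H]UTP incorporation into TCA-insoluble RNA, compared with and without test compound. Reaction (25 °C, 60 min, Tris pH 7.5, 5 mM MgCl2): E. coli-expressed 1b NS5B Δ47 with His tag at 0.5 μg/ml, 5 μg/ml run-off substrate RNA, ATP/GTP/CTP 50 μM, UTP 2 μM.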

[2] = target: T2, HCV polymerase (NS5B) type 1a (Hepatitis C virus genotype 1a, UniProt P26664); assay: Assay of enzyme (HCV polymerase) inhibitory activity, type 1a enzyme; assay type: biochemical, HCV type 1a (cloned from the blood of patients); details: HCV polymerase inhibitory activity IC50, 1a, type 1a enzyme
T2 construct: made in house; host or cells: Escherichia coli (by the 'similar method' of the 1b enzyme)
In short: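 Reactions ran 60 min at 25° C in 20 mM Tris-HCl pH 7.5, 5 mM MgCl2, 50 mM NaCl, holding genotype 1a NS5B (1.5 μg/ml, Δ47 C-terminus, 6His), substrate RNA 5 μg/ml, UTP 2 μM with tritiated UTP and other NTPs 50 μM. IC50 derived from incorporated radiolabel in filter-trapped RNA relative to uninhibited reaction.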

Row | SMILES | IC50 [1] | IC50 [2]
1 | O=C(NCc1ccc(OC(F)(F)F)cc1)[C@H]1CN(c2cnc3c(Cl)cccc3n2)CCN1S(=O)(=O)c1ccc(OC(F)(F)F)cc1 [Example 766, (R)-4-(5-chloro-quinoxalin-2-yl)-1-(4-trifluoromethoxy-benzenesulfonyl)-piperazine-2-carboxylic acid 4-trifluoromethoxy-benzylamide] | < 100 nM | 100 to 1000 nM
2 | Cc1ncc2ncc(N3CCN(S(=O)(=O)c4ccc(OC(F)(F)F)cc4)[C@@H](C(=O)NCc4ccc(OC(F)(F)F)cc4)C3)nc2n1 [Example 767, (R)-4-(2-methyl-pteridin-7-yl)-1-(4-trifluoromethoxy-benzenesulfonyl)-piperazine-2-carboxylic acid 4-trifluoromethoxy-benzylamide] | < 100 nM | < 100 nM
3 | O=C(NCc1ccc(OC(F)(F)F)cc1)[C@H]1CN(c2nc3ccncc3s2)CCN1S(=O)(=O)c1ccc(OC(F)(F)F)cc1 [Example 768, (R)-4-thiazolo[5,4-c]pyridin-2-yl-1-(4-trifluoromethoxy-benzenesulfonyl)-piperazine-2-carboxylic acid 4-trifluoromethoxy-benzylamide] | < 100 nM | < 100 nM
4 | O=C(NCc1ccc(OC(F)(F)F)cc1)[C@H]1CN(c2cnc3ncccc3n2)CCN1S(=O)(=O)c1ccc(OC(F)(F)F)cc1 [Example 769, (R)-4-pyrido[2,3-b]pyrazin-2-yl-1-(4-trifluoromethoxy-benzenesulfonyl)-piperazine-2-carboxylic acid 4-trifluoromethoxy-benzylamide] | < 100 nM | < 100 nM
5 | O=C(NCc1ccc(OC(F)(F)F)cc1)[C@H]1CN(c2cnc3cccnc3n2)CCN1S(=O)(=O)c1ccc(OC(F)(F)F)cc1 [Example 770, (R)-4-pyrido[2,3-b]pyrazin-3-yl-1-(4-trifluoromethoxy-benzenesulfonyl)-piperazine-2-carboxylic acid 4-trifluoromethoxy-benzylamide] | < 100 nM | < 100 nM
6 | O=C(NCc1ccc(OC(F)(F)F)cc1)[C@H]1CN(c2ccc3cnccc3n2)CCN1S(=O)(=O)c1ccc(OC(F)(F)F)cc1 [Example 771, (R)-4-[1,6]naphthyridin-2-yl-1-(4-trifluoromethoxy-benzenesulfonyl)-piperazine-2-carboxylic acid 4-trifluoromethoxy-benzylamide] | < 100 nM | < 100 nM
7 | O=C(NCc1ccc(SC(F)(F)F)cc1)[C@H]1CN(c2cnc3cncnc3n2)CCN1S(=O)(=O)c1ccc(OC(F)(F)F)cc1 [Example 772, (R)-4-pteridin-7-yl-1-(4-trifluoromethoxy-benzenesulfonyl)-piperazine-2-carboxylic acid 4-trifluoromethylsulfanyl-benzylamide] | < 100 nM | < 100 nM
8 | CCCc1ccc(CNC(=O)[C@H]2CN(c3cnc4cncnc4n3)CCN2S(=O)(=O)c2ccc(OC(F)(F)F)c(CCCC(=O)O)c2)cc1 [Example 773, 4-{5-[(R)-2-(4-propyl-benzylcarbamoyl)-4-pteridin-7-yl-piperazine-1-sulfonyl]-2-trifluoromethoxy-phenyl}-butyric acid] | < 100 nM | < 100 nM
9 | O=C(O)c1ccc(N2CCN(S(=O)(=O)c3ccc(OC(F)(F)F)cc3)[C@@H](C(=O)NCc3ccc(OC(F)(F)F)cc3)C2)nc1 [Example 774, 6-[(R)-4-(4-trifluoromethoxy-benzenesulfonyl)-3-(4-trifluoromethoxy-benzylcarbamoyl)-piperazin-1-yl]-nicotinic acid] | < 100 nM | < 100 nM
10 | O=C(NCc1ccc(OC(F)(F)F)cc1)[C@H]1CN(c2cnc3cnccc3n2)CCN1S(=O)(=O)c1ccc(Br)s1 [Example 775, (R)-1-(5-bromo-thiophene-2-sulfonyl)-4-pyrido[3,4-b]pyrazin-2-yl-piperazine-2-carboxylic acid 4-trifluoromethoxy-benzylamide] | < 100 nM | < 100 nM
11 | O=C(NCc1ccc(OC(F)(F)F)cc1)[C@H]1CN(c2nc3cccnc3s2)CCN1S(=O)(=O)c1ccc(OC(F)(F)F)cc1 [Example 776, (R)-4-thiazolo[5,4-b]pyridin-2-yl-1-(4-trifluoromethoxy-benzenesulfonyl)-piperazine-2-carboxylic acid 4-trifluoromethoxy-benzylamide] | < 100 nM | < 100 nM
12 | CCCc1ccc(CNC(=O)[C@H]2CN(c3cnc4cnccc4n3)CCN2S(=O)(=O)c2ccc(I)cc2)cc1 [Example 777, (R)-1-(4-iodo-benzenesulfonyl)-4-pyrido[3,4-b]pyrazin-2-yl-piperazine-2-carboxylic acid 4-propyl-benzylamide] | < 100 nM | < 100 nM
13 | CCCc1ccc(CNC(=O)[C@H]2CN(c3cnc4cnccc4n3)CCN2S(=O)(=O)c2ccc(-c3cccc(O)c3)cc2)cc1 [Example 778, (R)-1-(3′-hydroxy-biphenyl-4-sulfonyl)-4-pyrido[3,4-b]pyrazin-2-yl-piperazine-2-carboxylic acid 4-propyl-benzylamide] | < 100 nM | < 100 nM
14 | CCCc1ccc(CNC(=O)[C@H]2CN(c3cnc4cnccc4n3)CCN2S(=O)(=O)c2ccc(-c3cccc(OCC(=O)O)c3)cc2)cc1 [Example 779, {4′-[(R)-2-(4-propyl-benzylcarbamoyl)-4-pyrido[3,4-b]pyrazin-2-yl-piperazine-1-sulfonyl]-biphenyl-3-yloxy}-acetic acid] | < 100 nM | < 100 nM
15 | O=C(O)c1cccc2nc(N3CCN(S(=O)(=O)c4ccc(OC(F)(F)F)cc4)[C@@H](C(=O)NCc4ccc(OC(F)(F)F)cc4)C3)cnc12 [Example 780, 2-[(R)-4-(4-trifluoromethoxy-benzenesulfonyl)-3-(4-trifluoromethoxy-benzylcarbamoyl)-piperazin-1-yl]-quinoxaline-5-carboxylic acid] | < 100 nM | 100 to 1000 nM
16 | O=C(O)c1cccc2ncc(N3CCN(S(=O)(=O)c4ccc(OC(F)(F)F)cc4)[C@@H](C(=O)NCc4ccc(OC(F)(F)F)cc4)C3)nc12 [Example 781, 3-[(R)-4-(4-trifluoromethoxy-benzenesulfonyl)-3-(4-trifluoromethoxy-benzylcarbamoyl)-piperazin-1-yl]-quinoxaline-5-carboxylic acid] | < 100 nM | < 100 nM
17 | O=C(NCc1ccc(OC(F)(F)F)cc1)[C@H]1CN(c2ccc3nccnc3c2)CCN1S(=O)(=O)c1ccc(OC(F)(F)F)cc1 [Example 782, (R)-4-quinoxalin-6-yl-1-(4-trifluoromethoxy-benzenesulfonyl)-piperazine-2-carboxylic acid 4-trifluoromethoxy-benzylamide] | < 100 nM | < 100 nM
18 | O=C(NCc1ccc(OC(F)(F)F)cc1)[C@H]1CNCCN1S(=O)(=O)c1ccc(OC(F)(F)F)cc1 [Example 783, (R)-1-(4-trifluoromethoxy-benzenesulfonyl)-piperazine-2-carboxylic acid 4-trifluoromethoxy-benzylamide] | > 1000 nM | > 1000 nM
19 | O=C(NCc1ccc(OC(F)(F)F)cc1)[C@H]1CN(c2nc3nc[nH]c(=O)c3s2)CCN1S(=O)(=O)c1ccc(OC(F)(F)F)cc1 [Example 784, (R)-4-(7-oxo-6,7-dihydro-thiazolo[4,5-d]pyrimidin-2-yl)-1-(4-trifluoromethoxy-benzenesulfonyl)-piperazine-2-carboxylic acid 4-trifluoromethoxy-benzylamide] | < 100 nM | < 100 nM
20 | O=C(NCc1ccc(OC(F)(F)F)cc1)[C@H]1CN(c2nc3nn[nH]c(=O)c3s2)CCN1S(=O)(=O)c1ccc(OC(F)(F)F)cc1 [Example 785, (R)-4-(4-oxo-3,4-dihydro-thiazolo[4,5-d][1,2,3]triazin-6-yl)-1-(4-trifluoromethoxy-benzenesulfonyl)-piperazine-2-carboxylic acid 4-trifluoromethoxy-benzylamide] | < 100 nM | < 100 nM
21 | CCc1ccc(S(=O)(=O)N2CCN(c3cnc(C(=O)O)cn3)C[C@@H]2C(=O)NCc2ccc(OC(F)(F)F)cc2)cc1 [Example 786, (R)-4-(4-ethyl-benzenesulfonyl)-3-(4-trifluoromethoxy-benzylcarbamoyl)-3,4,5,6-tetrahydro-2H-[1,2′]bipyrazinyl-5′-carboxylic acid] | < 100 nM | < 100 nM
22 | O=C(O)c1cnc(N2CCN(S(=O)(=O)c3ccc(Br)s3)[C@@H](C(=O)NCc3ccc(OC(F)(F)F)cc3)C2)cn1 [Example 787, (R)-4-(5-bromo-thiophene-2-sulfonyl)-3-(4-trifluoromethoxy-benzylcarbamoyl)-3,4,5,6-tetrahydro-2H-[1,2′]bipyrazinyl-5′-carboxylic acid] | < 100 nM | < 100 nM
23 | O=C(O)c1cnc(N2CCN(S(=O)(=O)c3ccc(N4CCCC4)cc3)[C@@H](C(=O)NCc3ccc(OC(F)(F)F)cc3)C2)cn1 [Example 788, (R)-4-(4-pyrrolidin-1-yl-benzenesulfonyl)-3-(4-trifluoromethoxy-benzylcarbamoyl)-3,4,5,6-tetrahydro-2H-[1,2′]bipyrazinyl-5′-carboxylic acid] | < 100 nM | < 100 nM
24 | O=C(NCc1ccc(OC(F)(F)F)cc1)[C@H]1CN(c2cnc3cncnc3n2)CCN1S(=O)(=O)c1ccc(Br)s1 [Example 789, (R)-1-(5-bromo-thiophene-2-sulfonyl)-4-pteridin-7-yl-piperazine-2-carboxylic acid 4-trifluoromethoxy-benzylamide] | < 100 nM | < 100 nM
